Test [1] deals with PC9 cells (EGFR Exon 19 del, non-small cell lung cancer cells). Nature of the test: Cell viability assay (WST/CCK8), PC9 cells. The format is cell-based. Particulars: Homo sapiens, PC-9; PC9 (Exon19 Del), 72 hours, WST (CCK8); read-out: IC50 (half inhibitory concentration). An excerpt:
The cell lines with abnormal EGFR expression used are as follows: • HCC827 cells (EGFR Exon19 del, non-small cell lung cancer cells); • PC9 cells (EGFR Exon 19 del, non-small cell lung cancer cells); • PC9BracA1 (EGFR Exon 19 del+T790M, non-small cell lung cancer cells) • H1975 (EGFR Exon T790M+L858R mutation, non-small cell lung cancer cell line) • BT474 cells (HER2 positive breast cancer cells)
All of the half inhibitory concentrations (IC50) of these compounds of the present invention were determined with WST reagent from Fuyuan Biotec Company. The specific experiment procedures are as follows: Cancer cells were planted in 96-well-plate at the density of 3 000 cells per well with 100 μL RPMI1640 completed culture medium. In the next day, compounds with indicated concentrations were added to the cells, DMSO was used as the negative control and the EGFR TKIs were used to treat cells as the positive groups. After 72 hours drug treatment, cell viability was measured by using the WST reagent following the instructions.
The cells were treated with the gradient concentration of these compounds (the maximum concentration: 10 μM; 3-fold dilution ratio, 10 concentration gradients) for 72 hours and then incubated with the WST (CCK8) reagent to determine the cell viability.

The test system of test [2] is HCC827 cells (EGFR Exon19 del, non-small cell lung cancer cells). Nature of the test: Cell viability assay (WST/CCK8), HCC827 cells. Format: cell-based. Conditions: 72 hours; for IC50: Homo sapiens, HCC827, 72 h, read-out: IC50 (half inhibitory concentration). An outline of the steps:
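Cells seeded at 3 000/well in RPMI1640 complete medium, dosed next day with compounds (top 10 μM, 3-fold, 10 points) for 72 h. Viability read with WST (CCK8) reagent; DMSO as negative control, EGFR TKIs as positive controls; IC50 determined.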

Where [3] appears, read: HCC827 (Exon19 Del), WST (CCK8).
Where [4] appears, read: Table 5, afatinib-based compounds, HCC827 (Exon19 Del), WST.
Where [5] appears, read: Table 4, gefitinib and sapitinib-based compounds, HCC827 (Exon19 Del), WST.
Where [6] appears, read: Table 3, poziotinib-based compounds, HCC827 (Exon19 Del), WST (CCK8).

The results in this text go back to patent US12564638B2 (SHANGHAITECH UNIVERSITY, priority 2019, dated 2026).

Molecules are shown by their SMILES. Read-outs that look alike come from different tables or passages of the source.

Regarding `COc1cc2ncnc(Nc3ccc(F)c(Cl)c3)c2cc1NC(=O)/C=C/CN1CCN(C(=O)CCSc2cccc3c2C(=O)N(C2CCC(=O)NC2=O)C3=O)CC1` (stereo not drawn) [SIAIS249035, (E)-N-(4-((3-chloro-4-fluorophenyl)amino)-7-methoxyquinazolin-6-yl)-4-(4-(3-((2-(2,6-dioxopiperidin-3-yl)-1,3-dioxoisoindolin-4-yl)thio)propanoyl)piperazin-1-yl)but-2-enamide], the IC50 was found to be 0.0565 µM in test [1] and 0.01 µM in test [2] (setting [3]).
Taken in the same sequence, the figures for `COc1cc2ncnc(Nc3ccc(F)c(Cl)c3)c2cc1NC(=O)/C=C/CN1CCN(C(=O)COCCOCCOCCOCCOCCSc2cccc3c2CN(C2CCC(=O)NC2=O)C3=O)CC1` (stereo not drawn) [SIAIS262004, (E)-N-(4-((3-chloro-4-fluorophenyl)amino)-7-methoxyquinazolin-6-yl)-4-(4-(17-((2-(2,6-dioxopiperidin-3-yl)-1-oxoisoindolin-4-yl)thio)-3,6,9,12,15-pentaoxaheptadecan-1-oyl)piperazin-1-yl)but-2-enamide] were 0.015 µM and 0.0072 µM.
`COc1cc2ncnc(Nc3ccc(F)c(Cl)c3)c2cc1NC(=O)/C=C/CN1CCC(NC(=O)CSc2cccc3c2CN(C2CCC(=O)NC2=O)C3=O)CC1` (stereo not drawn) [SIAIS262110, (E)-N-(4-((3-chloro-4-fluorophenyl)amino)-7-methoxyquinazolin-6-yl)-4-(4-(2-((2-(2,6-dioxopiperidin-3-yl)-1-oxoisoindolin-4-yl)thio)acetamido)piperidin-1-yl)but-2-enamide]: the IC50 is 0.073 µM in test [1] and 0.02 µM in test [2] (setting [3]).
The matching figures for `COc1cc2ncnc(Nc3ccc(F)c(Cl)c3)c2cc1NC(=O)/C=C/CN1CCN(C(=O)CCCCCCC(=O)N[C@H](C(=O)N2C[C@H](O)C[C@H]2C(=O)NCc2ccc(-c3scnc3C)cc2)C(C)(C)C)CC1` [SIAIS249043, (2S,4R)-1-((S)-2-(8-(4-((E)-4-((4-((3-chloro-4-fluorophenyl)amino)-7-methoxyquinazolin-6-yl)amino)-4-oxobut-2-en-1-yl)piperazin-1-yl)-8-oxooctanamido)-3,3-dimethylbutanoyl)-4-hydroxy-N-(4-(4-methylthiazol-5-yl)benzyl)pyrrolidine-2-carboxamide]: 0.0706 µM and 0.0193 µM.
As for `O=C1CCC(N2C(=O)c3cccc(SCCOCCOCCOCCOCC(=O)Nc4cc5c(Nc6ccc(F)c(Cl)c6)ncnc5cc4O[C@H]4CCOC4)c3C2=O)C(=O)N1` (stereo partly drawn) [SIAIS184155, N-(4-((3-chloro-4-fluorophenyl)amino)-7-(((S)-tetrahydrofuran-3-yl)oxy)quinazolin-6-yl)-14-((2-(2,6-dioxopiperidin-3-yl)-1,3-dioxoisoindolin-4-yl)thio)-3,6,9,12-tetraoxatetradecan-1-amide], the IC50 in test [2] (setting [4]) came out at 0.079 µM.
On to `COc1cc2ncnc(Nc3cccc(Cl)c3F)c2cc1OC1CCN(CC(=O)NCCCCSc2cccc3c2CN(C2CCC(=O)NC2=O)C3=O)CC1` (stereo not drawn) [SIAIS293067, 2-(4-((4-((3-chloro-2-fluorophenyl)amino)-7-methoxyquinazolin-6-yl)oxy)piperidin-1-yl)-N-(4-((2-(2,6-dioxopiperidin-3-yl)-1-oxoisoindolin-4-yl)thio)butyl)acetamide], for which, in test [2] (HCC827 cells), the “cell proliferation inhibition (in words)” value is on record as “better than sapitinib on cell killing”. Moreover, the IC50 in test [2] (setting [5]) is 0.0003 µM.
`COc1cc2ncnc(Nc3ccc(F)c(Cl)c3)c2cc1OCCCN1CCC(N2CCN(CCCCC#Cc3cccc4c3CN(C3CCC(=O)NC3=O)C4=O)CC2)CC1` (stereo not drawn) [SIAIS262090, 3-(4-(6-(4-(1-(3-((4-((3-chloro-4-fluorophenyl)amino)-7-methoxyquinazolin-6-yl)oxy)propyl)piperidin-4-yl)piperazin-1-yl)hex-1-yn-1-yl)-1-oxoisoindolin-2-yl)piperidine-2,6-dione]: in test [2] (setting [5]), the IC50 worked out at 0.047 µM.
Take `O=C1CCC(N2C(=O)c3cccc(SCC(=O)Nc4cc5c(Nc6ccc(F)c(Cl)c6)ncnc5cc4O[C@H]4CCOC4)c3C2=O)C(=O)N1` (stereo partly drawn) [SIAIS184093, N-(4-((3-chloro-4-fluorophenyl)amino)-7-(((S)-tetrahydrofuran-3-yl)oxy)quinazolin-6-yl)-2-((2-(2,6-dioxopiperidin-3-yl)-1,3-dioxoisoindolin-4-yl)thio)acetamide]: in test [2] (setting [4]), the IC50 came to 0.0862 µM.
As to `COc1cc2ncnc(Nc3ccc(Cl)c(Cl)c3F)c2cc1OC1CCN(C(=O)CCCCCCSc2cccc3c2C(=O)N(C2CCC(=O)NC2=O)C3=O)CC1` (stereo not drawn) [SIAIS249019, 4-((7-(4-((4-((3,4-dichloro-2-fluorophenyl)amino)-7-methoxyquinazolin-6-yl)oxy)piperidin-1-yl)-7-oxoheptyl)thio)-2-(2,6-dioxopiperidin-3-yl)isoindoline-1,3-dione], the IC50 in test [2] (setting [6]) amounted to 0.038 µM.
As to `COc1cc2ncnc(Nc3ccc(F)c(Cl)c3)c2cc1NC(=O)/C=C/CN1CCN(C(=O)COCCOCCOCCOCCOCCSc2cccc3c2C(=O)N(C2CCC(=O)NC2=O)C3=O)CC1` (stereo not drawn) [SIAIS262008, (E)-N-(4-((3-chloro-4-fluorophenyl)amino)-7-methoxyquinazolin-6-yl)-4-(4-(17-((2-(2,6-dioxopiperidin-3-yl)-1,3-dioxoisoindolin-4-yl)thio)-3,6,9,12,15-pentaoxaheptadecanoyl)piperazin-1-yl)but-2-enamide], the IC50 in test [2] (setting [3]) is 0.0466 µM.
With `COc1cc2ncnc(Nc3ccc(Cl)c(Cl)c3F)c2cc1OC1CCN(C(=O)CCCCCCCCC(=O)N[C@H](C(=O)N2C[C@H](O)C[C@H]2C(=O)NCc2ccc(-c3scnc3C)cc2)C(C)(C)C)CC1` [SIAIS249023, (2S,4R)-1-((S)-2-(10-(4-((4-((3,4-dichloro-2-fluorophenyl)amino)-7-methoxyquinazolin-6-yl)oxy)piperidin-1-yl)-10-oxodecanamido)-3,3-dimethylbutanoyl)-4-hydroxy-N-(4-(4-methylthiazol-5-yl)benzyl)pyrrolidine-2-carboxamide], the IC50 in test [2] (setting [6]) was 0.049 µM.
The same measure, in the same setting: with `COc1cc2ncnc(Nc3ccc(Cl)c(Cl)c3F)c2cc1OC1CCN(C(=O)COCCOCC(=O)N[C@H](C(=O)N2C[C@H](O)C[C@H]2C(=O)NCc2ccc(-c3scnc3C)cc2)C(C)(C)C)CC1` [SIAIS249024, (2S,4R)-1-((S)-2-(2-(2-(2-(4-((4-((3,4-dichloro-2-fluorophenyl)amino)-7-methoxyquinazolin-6-yl)oxy)piperidin-1-yl)-2-oxoethoxy)ethoxy)acetamido)-3,3-dimethylbutanoyl)-4-hydroxy-N-(4-(4-methylthiazol-5-yl)benzyl)pyrrolidine-2-carboxamide] the figure was 0.174 µM.
On to `O=C1CCC(N2Cc3c(SCCC(=O)Nc4cc5c(Nc6ccc(F)c(Cl)c6)ncnc5cc4O[C@H]4CCOC4)cccc3C2=O)C(=O)N1` (stereo partly drawn) [SIAIS1210085, N-(4-((3-chloro-4-fluorophenyl)amino)-7-(((S)-tetrahydrofuran-3-yl)oxy)quinazolin-6-yl)-3-((2-(2,6-dioxopiperidin-3-yl)-1-oxoisoindolin-4-yl)thio)propanamide], for which the IC50 in test [2] (setting [4]) amounted to 0.481 µM.
Take `COc1cc2ncnc(Nc3ccc(F)c(Cl)c3)c2cc1NC(=O)/C=C/CN1CCC(N2CCN(CCCCCCNc3cccc4c3C(=O)N(C3CCC(=O)NC3=O)C4=O)CC2)CC1` (stereo not drawn) [SIAIS262072, (E)-N-(4-((3-chloro-4-fluorophenyl)amino)-7-methoxyquinazolin-6-yl)-4-(4-(4-(6-((2-(2,6-dioxopiperidin-3-yl)-1,3-dioxoisoindolin-4-yl)amino)hexyl)piperazin-1-yl)piperidin-1-yl)but-2-enamide]: in test [2] (setting [3]), the IC50 stood at 0.0169 µM.
For `COc1cc2ncnc(Nc3ccc(Cl)c(Cl)c3F)c2cc1OC1CCN(C(=O)CCCCCCC(=O)N[C@H](C(=O)N2C[C@H](O)C[C@H]2C(=O)NCc2ccc(-c3scnc3C)cc2)C(C)(C)C)CC1` [SIAIS249022, (2S,4R)-1-((S)-2-(8-(4-((4-((3,4-dichloro-2-fluorophenyl)amino)-7-methoxyquinazolin-6-yl)oxy)piperidin-1-yl)-8-oxooctanamido)-3,3-dimethylbutanoyl)-4-hydroxy-N-(4-(4-methylthiazol-5-yl)benzyl)pyrrolidine-2-carboxamide], the IC50 in test [2] (setting [6]) was 0.04 µM.
As for `C=CC(=O)Nc1cc(Nc2nccc(-c3cn(C)c4ccccc34)n2)c(OC)cc1N(C)CCN(C)C(=O)COCCOCCOCCOCCSc1cccc2c1CN(C1CCC(=O)NC1=O)C2=O` (stereo not drawn) [SIAIS337077, N-(2-((2-acrylamido-5-methoxy-4-((4-(1-methyl-1H-indol-3-yl)pyrimidin-2-yl)amino)phenyl)(methyl)amino)ethyl)-14-((2-(2,6-dioxopiperidin-3-yl)-1-oxoisoindolin-4-yl)thio)-N-methyl-3,6,9,12-tetraoxatetradecanamide], the IC50 in test [2] (Table 8, osimertinib-based compounds, HCC827, WST) came to 0.036 µM.
